Test system: vasopressin receptor
Assay type: cell-based
Conditions: HEK293T cells (FIG. 8), compared to vasopressin

## CC[C@H](C)[C@@H]1NC(=O)[C@H](Cc2ccc(O)cc2)NC(=O)[C@@H](N)CSSC[C@@H](C(=O)N2CCC[C@H]2C(=O)N[C@@H](CC(C)C)C(=O)NCC(N)=O)NC(=O)[C@H](CC(N)=O)NC(=O)[C@H](CCC(N)=O)NC1=O [oxytocin]
  beta arrestin signaling (green fluorescence), speed: significantly slower
